Where two headings read alike, the source gives them in different places.

This note sets out measurements from patent US20040044037A1, “Amidino-urea serotonin receptor ligands and compositions, their pharmaceutical uses, and methods for their snythesis” (priority 2003, published 2004).

In test [1] the target is T1, human 5-HT7B (h5-HT7b) receptors (Homo sapiens, UniProt P34969).
T1 construct: expressed in transfected cells
Put plainly: Competition radioligand binding, h5-HT7b. In outline: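 Membranes from HEK 293 cells stably expressing human 5-HT7b incubated with ~0.2 nM [3H]5-CT and varying compound 2 h at 37 °C in HEPES buffer pH 7.4 with pargyline. Nonspecific binding with 1 μM 5-HT; filtration, scintillation counting; IC50 by nonlinear regression converted to Ki via Cheng–Prusoff.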

Test [2] deals with T2, human 5HT2a receptors (Homo sapiens, UniProt P28223).
T2 construct: expressed in transfected cells; host or cells: CHO K1 cells
Put plainly: Competition radioligand binding, 5-HT2A. The procedure, abridged:
(§1)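 Human 5-HT1a and 5-HT2a receptors were expressed in CHO K1 cell membranes. Competition binding was stopped by filtration onto PEI-soaked GF/C filters and counted by liquid scintillation. IC50 values and Hill slopes came from nonlinear regression, and Ki was calculated by Cheng–Prusoff.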

In test [3] the target is T3, human D2S dopamine (hD2S-DA) receptors (Homo sapiens, UniProt P14416).
T3 construct: purchased Receptor Biology, Inc. (Beltsville, Md.); host or cells: A9 L cells
Description: Competition radioligand binding, hD2S dopamine.

The target in test [4] is T4, human 5-HT6 (h5-HT6) receptors (Homo sapiens, UniProt P50406).
T4 construct: purchased Receptor Biology, Inc. (Beltsville, Md.); host or cells: HEK-293 cells
Description: Competition radioligand binding, h5-HT6.

The target in test [5] is T5, human 5-HT1a receptors (Homo sapiens, UniProt P08908).
T5 construct: expressed in transfected cells; host or cells: CHO K1 cells
T5 sequence (P08908 1-422): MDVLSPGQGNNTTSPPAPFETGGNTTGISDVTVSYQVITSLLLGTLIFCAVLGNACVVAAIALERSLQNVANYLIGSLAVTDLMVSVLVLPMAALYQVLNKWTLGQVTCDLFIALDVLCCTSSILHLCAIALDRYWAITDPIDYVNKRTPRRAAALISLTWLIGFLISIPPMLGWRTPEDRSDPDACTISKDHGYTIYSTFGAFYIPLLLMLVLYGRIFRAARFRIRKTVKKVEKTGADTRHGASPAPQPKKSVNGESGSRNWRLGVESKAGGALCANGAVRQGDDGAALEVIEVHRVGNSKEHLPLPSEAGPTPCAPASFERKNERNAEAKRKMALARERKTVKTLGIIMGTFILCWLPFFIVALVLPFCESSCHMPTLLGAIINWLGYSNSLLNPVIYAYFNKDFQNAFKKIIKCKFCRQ
Description: Competition radioligand binding, h5-HT1a. The procedure, abridged:
as §1

The mark [6] stands for this setting: [3H]5-CT, membranes of HEK 293 cells, read-out: Ki 5-HT7.
The mark [7] stands for this setting: [3H]Ketanserin, membranes of CHO K1 cells, read-out: Ki 5-HT2A.
[8] abbreviates: [3H]Spiperone, membranes of A9 L cells, read-out: Ki D2.
The mark [9] stands for this setting: [3H]LSD, membranes of HEK-293 cells, read-out: Ki 5-HT6.
[10] abbreviates: [3H]5-CT, membranes of CHO K1 cells, read-out: Ki 5-HT1A.

T1 sequence (P34969 1-432 limits assumed): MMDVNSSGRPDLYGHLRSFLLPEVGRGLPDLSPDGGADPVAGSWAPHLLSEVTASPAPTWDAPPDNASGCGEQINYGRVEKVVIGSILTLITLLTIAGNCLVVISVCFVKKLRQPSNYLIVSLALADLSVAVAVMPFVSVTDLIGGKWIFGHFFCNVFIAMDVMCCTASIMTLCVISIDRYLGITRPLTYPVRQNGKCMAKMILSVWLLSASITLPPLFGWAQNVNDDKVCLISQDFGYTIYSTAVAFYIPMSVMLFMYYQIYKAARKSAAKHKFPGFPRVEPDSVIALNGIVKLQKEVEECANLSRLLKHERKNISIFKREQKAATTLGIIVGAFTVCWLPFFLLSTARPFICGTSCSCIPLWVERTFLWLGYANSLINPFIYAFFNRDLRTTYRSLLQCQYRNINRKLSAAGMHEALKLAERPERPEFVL
T4 sequence (P50406 whole entry): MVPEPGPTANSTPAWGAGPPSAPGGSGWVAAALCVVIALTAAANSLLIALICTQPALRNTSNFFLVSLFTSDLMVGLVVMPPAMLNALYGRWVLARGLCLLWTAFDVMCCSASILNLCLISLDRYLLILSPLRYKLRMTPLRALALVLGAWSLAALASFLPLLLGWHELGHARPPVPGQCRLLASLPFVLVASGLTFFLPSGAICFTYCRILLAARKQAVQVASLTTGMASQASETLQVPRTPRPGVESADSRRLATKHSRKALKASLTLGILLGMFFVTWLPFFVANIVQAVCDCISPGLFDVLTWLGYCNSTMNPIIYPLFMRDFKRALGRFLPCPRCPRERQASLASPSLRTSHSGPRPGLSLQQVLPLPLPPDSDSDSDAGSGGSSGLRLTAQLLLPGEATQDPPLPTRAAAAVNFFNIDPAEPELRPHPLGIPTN
T3 sequence (P14416 1-414 isoform P14416-2): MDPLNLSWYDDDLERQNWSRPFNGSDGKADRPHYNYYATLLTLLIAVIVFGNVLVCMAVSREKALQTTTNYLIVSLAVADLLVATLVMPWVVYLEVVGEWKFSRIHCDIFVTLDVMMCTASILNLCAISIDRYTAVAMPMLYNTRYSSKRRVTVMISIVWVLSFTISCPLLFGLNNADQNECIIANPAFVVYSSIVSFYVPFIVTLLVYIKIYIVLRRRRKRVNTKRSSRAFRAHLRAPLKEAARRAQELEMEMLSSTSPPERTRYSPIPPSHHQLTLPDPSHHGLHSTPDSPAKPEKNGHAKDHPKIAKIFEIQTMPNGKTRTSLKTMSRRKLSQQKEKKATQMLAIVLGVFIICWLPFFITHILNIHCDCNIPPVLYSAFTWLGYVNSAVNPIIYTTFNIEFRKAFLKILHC
T2 sequence (P28223 whole entry): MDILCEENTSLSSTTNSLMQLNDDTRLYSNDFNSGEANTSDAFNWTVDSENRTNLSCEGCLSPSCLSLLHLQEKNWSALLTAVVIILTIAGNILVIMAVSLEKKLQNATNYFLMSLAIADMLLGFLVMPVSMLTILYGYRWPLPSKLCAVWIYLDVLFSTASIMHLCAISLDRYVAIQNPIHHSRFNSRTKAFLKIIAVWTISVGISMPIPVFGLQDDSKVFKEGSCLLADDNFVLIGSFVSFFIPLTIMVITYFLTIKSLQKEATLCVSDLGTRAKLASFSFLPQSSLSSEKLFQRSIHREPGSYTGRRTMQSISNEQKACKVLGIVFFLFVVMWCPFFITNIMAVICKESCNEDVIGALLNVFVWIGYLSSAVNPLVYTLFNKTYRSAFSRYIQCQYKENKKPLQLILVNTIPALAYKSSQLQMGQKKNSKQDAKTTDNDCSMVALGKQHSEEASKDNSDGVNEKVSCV

In the case of `N=C(NCc1cccc2ccccc12)NC(=O)N1CCN(C/C=C/c2ccccc2)CC1` [Example 24, N-(1-Naphthylmethyl)-N′-({4-[(E)-3-phenyl-2-propenyl]-1-piperazinyl}carbonyl)guanidine], the Ki in test [1] (setting [6]) was found to be 3.2 nM; in test [2] (setting [7]), 78 nM; in test [3] (setting [8]), 820 nM; in test [4] (setting [9]) it was 1910 nM; in test [5] (setting [10]), 2620 nM.
As for `CNC(=O)NC(=N)NCc1c(OC)cccc1OC` [Example 85, 2-{[(Imino{[(methylamino)carbonyl]amino}methyl)amino]methyl}-1,3-dimethoxybenzene], the inhibition constant (Ki) in test [1] (setting [6]) is 12 nM; in test [2] (setting [7]) it was 280 nM; in test [3] (setting [8]), over 2500 nM; in test [4] (setting [9]) it was 6340 nM; in test [5] (setting [10]) it was 310 nM.
Turning to `CNC(=O)NC(=N)NCc1cccc2ccccc12` [Example 54, 1-{[(1-Imino{[(methylamino)carbonyl]amino}methyl)amino]methyl}naphthalene], the Ki is 13 nM in test [1] (setting [6]); 9.6 nM in test [2] (setting [7]); over 2500 nM in test [3] (setting [8]); 2450 nM in test [4] (setting [9]); 2450 nM in test [5] (setting [10]).
Consider `N=C(NCc1cccc2ccccc12)NC(=O)NC1CCCc2ccccc21` (stereo not drawn) [Example 40, 1-{[({Imino[(1-naphthylmethyl)amino]methyl}amino)carbonyl]amino}-1,2,3,4-tetrahydronaphthalene], for which the Ki amounted to 24 nM in test [1] (setting [6]); 4.1 nM in test [2] (setting [7]); 1700 nM in test [3] (setting [8]); 590 nM in test [4] (setting [9]); 540 nM in test [5] (setting [10]).
For `COc1ccccc1CN1CCN(C(=O)NC(=N)NCc2cccc3ccccc23)CC1` [Example 5, N-{[4-(2-Methoxybenzyl)-1-piperazinyl]carbonyl}-N′-(1-naphthylmethyl)guanidine], in that order: 26 nM, 46 nM, 2010 nM, 1960 nM and 2390 nM.
For `N=C(NCc1cccc2ccccc12)NC(=O)N1CCC(Nc2ccccc2)CC1` [Example 25, N-[(4-Anilino-1-piperidinyl)carbonyl]-N-(1-naphthylmethyl)guanidine], the Ki in test [1] was 7.4 nM; in test [2], 120 nM; in test [3], 1470 nM; in test [4], over 10000 nM; in test [5], 2590 nM.
As to `N=C(NCc1c(Cl)cccc1Oc1ccccc1)NC(=O)N1CCC(Nc2ccccc2)CC1` [Example 80, N-[(4-Anilino-1-piperidinyl)carbonyl]-N′-(2-chloro-6-phenoxybenzyl)guanidine], the Ki was 41 nM in test [1]; 930 nM in test [2]; over 2500 nM in test [3]; 2300 nM in test [4]; 3650 nM in test [5].
`COc1ccccc1CN1CCC(CNC(=O)NC(=N)NCc2cccc3ccccc23)CC1` [Example 45, 4-({[({Imino[(1-naphthylmethyl)amino]methyl}amino)carbonyl]amino}methyl)-1-(2-methoxybenzyl)piperidine]: the Ki in test [1] (setting [6]) came to 21 nM; in test [2] (setting [7]), 3.9 nM; in test [3] (setting [8]), 500 nM; in test [4] (setting [9]) it was 1550 nM; in test [5] (setting [10]), 600 nM.
As to `COc1ccc(CN2CCC(CNC(=O)NC(=N)NCc3cccc4ccccc34)CC2)cc1C` [Example 68, 4-({[({Imino[(1-naphthylmethyl)amino]methyl}amino)carbonyl]amino}methyl)-1-(4-methoxy-3-methylbenzyl)piperidine], the Ki in test [1] (setting [6]) amounted to 18 nM; in test [2] (setting [7]), 10 nM; in test [3] (setting [8]) it was 1540 nM; in test [4] (setting [9]), 910 nM; in test [5] (setting [10]), 1680 nM.
